Test results: ChEMBL document CHEMBL4393671, “Design of a Cyclin G Associated Kinase (GAK)/Epidermal Growth Factor Receptor (EGFR) Inhibitor Set to Interrogate the Relationship of EGFR and GAK in Chordoma” (J Med Chem, 2019)
Active and inactive are the calls of the source. The rule behind the calls is not given here.

Tests used:
[1] = biological target: T1, Cyclin-G-associated kinase (Homo sapiens, UniProt O14976); experiment: Binding affinity to wild-type human partial length GAK (G13 to Y338 residues) expressed in bacterial expression system by Kinomescan method
T1 sequence (O14976 whole entry): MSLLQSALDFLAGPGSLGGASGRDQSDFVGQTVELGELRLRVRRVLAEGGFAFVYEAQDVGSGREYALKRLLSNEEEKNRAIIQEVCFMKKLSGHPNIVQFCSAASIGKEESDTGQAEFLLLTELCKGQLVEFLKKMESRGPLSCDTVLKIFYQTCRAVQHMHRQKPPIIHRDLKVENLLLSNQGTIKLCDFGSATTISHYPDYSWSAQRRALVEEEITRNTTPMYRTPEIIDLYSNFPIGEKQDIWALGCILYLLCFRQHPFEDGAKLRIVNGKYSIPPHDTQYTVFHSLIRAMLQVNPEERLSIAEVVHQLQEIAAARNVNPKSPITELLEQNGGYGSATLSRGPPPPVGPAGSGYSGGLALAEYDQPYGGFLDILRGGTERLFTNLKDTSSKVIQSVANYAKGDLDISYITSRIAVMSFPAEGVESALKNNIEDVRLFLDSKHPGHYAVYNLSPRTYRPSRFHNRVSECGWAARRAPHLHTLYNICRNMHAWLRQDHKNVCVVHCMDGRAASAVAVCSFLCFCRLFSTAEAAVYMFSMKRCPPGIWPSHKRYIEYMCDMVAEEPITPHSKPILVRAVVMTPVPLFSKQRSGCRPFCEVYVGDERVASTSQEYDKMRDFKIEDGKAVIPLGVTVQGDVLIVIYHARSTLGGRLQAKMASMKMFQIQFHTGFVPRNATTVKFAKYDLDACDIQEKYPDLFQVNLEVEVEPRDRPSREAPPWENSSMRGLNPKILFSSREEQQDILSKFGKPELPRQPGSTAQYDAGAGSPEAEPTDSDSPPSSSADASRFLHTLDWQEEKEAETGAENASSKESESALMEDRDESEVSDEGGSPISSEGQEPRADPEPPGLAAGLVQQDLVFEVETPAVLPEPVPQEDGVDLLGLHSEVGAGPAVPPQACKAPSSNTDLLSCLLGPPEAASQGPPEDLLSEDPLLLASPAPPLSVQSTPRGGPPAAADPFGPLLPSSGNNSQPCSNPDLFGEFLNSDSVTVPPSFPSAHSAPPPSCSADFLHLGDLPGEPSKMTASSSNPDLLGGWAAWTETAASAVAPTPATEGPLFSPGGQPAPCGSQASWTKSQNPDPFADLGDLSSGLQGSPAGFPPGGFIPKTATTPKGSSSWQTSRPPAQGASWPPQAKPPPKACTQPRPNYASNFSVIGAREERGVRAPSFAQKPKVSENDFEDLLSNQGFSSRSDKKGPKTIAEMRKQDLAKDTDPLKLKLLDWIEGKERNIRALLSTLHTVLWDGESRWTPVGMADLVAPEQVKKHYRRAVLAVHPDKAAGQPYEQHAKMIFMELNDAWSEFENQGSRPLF

[2] = biological target: T2, Epidermal growth factor receptor (Homo sapiens, UniProt P00533); experiment: Inhibition of EGFR in human UCH2 cells assessed as reduction in EGF-induced EGFR phosphorylation at Y1068 residue at 10 uM preincubated for 4 hrs followed by EGF--stimulation and measured after 15 mins by Western blot analysis relative to control; assay type: cell-based
cells [3] = assay type: functional, cell-based; conditions: Homo sapiens, 72 h
Description: Antiproliferative activity against human CH22 cells measured after 72 hrs by alamar blue assay

[4] = biological target: T1, Cyclin-G-associated kinase; experiment: Inhibition of tracer 5 binding to human N-terminal nano luciferase-fused GAK expressed in HEK293 cells measured after 2 hrs by nanoBRET assay; assay type: cell-based; conditions: hek293
[5] = biological target: T2, Epidermal growth factor receptor
Description: Binding affinity to wild-type human partial length EGFR (R669 to V1011 residues) expressed in bacterial expression system by Kinomescan method

[6] = biological target: T3, Cyclin-G-associated kinase (Homo sapiens) (UniProt O14976); experiment: Binding affinity to GAK in human SUM159 cell lysates by multiplexed inhibitor bead profiling-based LC-MS/MS analysis; assay type: subcellular; conditions: Lysate
T3 sequence (whole entry): T1 sequence (O14976 whole entry)

[7] = biological target: T2, Epidermal growth factor receptor; assay type: cell-based
Description: Inhibition of EGFR in human A431 cells assessed as reduction in EGF-stimulated EGFR autophosphorylation preincuabted for 90 mins followed by EGF-stimulation by sandwich-ELISA

cells [8] = assay type: functional, cell-based; conditions: Homo sapiens, UCH2, 72 h
Description: Antiproliferative activity against human UCH2 cells measured after 72 hrs by alamar blue assay

cells [9] = assay type: functional, cell-based; conditions: Homo sapiens, 72 h; remark: listed apart in the source
Description: Antiproliferative activity against human UMCHOR1 cells measured after 72 hrs by alamar blue assay

cells [10] = assay type: functional, cell-based; conditions: Homo sapiens, 72 h; remark: listed apart in the source
Description: Antiproliferative activity against human UCH12 cells measured after 72 hrs by alamar blue assay

cells [11] = assay type: ADME, cell-based; conditions: Homo sapiens, WS1, 72 h
Description: Cytotoxicity against human WS1 cells measured after 72 hrs by alamar blue assay

[12] = biological target: T2, Epidermal growth factor receptor; experiment: Inhibition of EGFR in human UCH2 cells assessed as reduction in EGF-induced EGFR phosphorylation at Y1068 residue at 1 uM preincubated for 4 hrs followed by EGF--stimulation and measured after 15 mins by Western blot analysis relative to control; assay type: cell-based
[13] = biological target: T2, Epidermal growth factor receptor; experiment: Inhibition of EGFR in human UCH1 cells assessed as reduction in EGF-induced EGFR phosphorylation at Y1068 residue at 1 uM preincubated for 4 hrs followed by EGF--stimulation and measured after 15 mins by Western blot analysis relative to control; assay type: cell-based

T2 sequence (P00533 whole entry): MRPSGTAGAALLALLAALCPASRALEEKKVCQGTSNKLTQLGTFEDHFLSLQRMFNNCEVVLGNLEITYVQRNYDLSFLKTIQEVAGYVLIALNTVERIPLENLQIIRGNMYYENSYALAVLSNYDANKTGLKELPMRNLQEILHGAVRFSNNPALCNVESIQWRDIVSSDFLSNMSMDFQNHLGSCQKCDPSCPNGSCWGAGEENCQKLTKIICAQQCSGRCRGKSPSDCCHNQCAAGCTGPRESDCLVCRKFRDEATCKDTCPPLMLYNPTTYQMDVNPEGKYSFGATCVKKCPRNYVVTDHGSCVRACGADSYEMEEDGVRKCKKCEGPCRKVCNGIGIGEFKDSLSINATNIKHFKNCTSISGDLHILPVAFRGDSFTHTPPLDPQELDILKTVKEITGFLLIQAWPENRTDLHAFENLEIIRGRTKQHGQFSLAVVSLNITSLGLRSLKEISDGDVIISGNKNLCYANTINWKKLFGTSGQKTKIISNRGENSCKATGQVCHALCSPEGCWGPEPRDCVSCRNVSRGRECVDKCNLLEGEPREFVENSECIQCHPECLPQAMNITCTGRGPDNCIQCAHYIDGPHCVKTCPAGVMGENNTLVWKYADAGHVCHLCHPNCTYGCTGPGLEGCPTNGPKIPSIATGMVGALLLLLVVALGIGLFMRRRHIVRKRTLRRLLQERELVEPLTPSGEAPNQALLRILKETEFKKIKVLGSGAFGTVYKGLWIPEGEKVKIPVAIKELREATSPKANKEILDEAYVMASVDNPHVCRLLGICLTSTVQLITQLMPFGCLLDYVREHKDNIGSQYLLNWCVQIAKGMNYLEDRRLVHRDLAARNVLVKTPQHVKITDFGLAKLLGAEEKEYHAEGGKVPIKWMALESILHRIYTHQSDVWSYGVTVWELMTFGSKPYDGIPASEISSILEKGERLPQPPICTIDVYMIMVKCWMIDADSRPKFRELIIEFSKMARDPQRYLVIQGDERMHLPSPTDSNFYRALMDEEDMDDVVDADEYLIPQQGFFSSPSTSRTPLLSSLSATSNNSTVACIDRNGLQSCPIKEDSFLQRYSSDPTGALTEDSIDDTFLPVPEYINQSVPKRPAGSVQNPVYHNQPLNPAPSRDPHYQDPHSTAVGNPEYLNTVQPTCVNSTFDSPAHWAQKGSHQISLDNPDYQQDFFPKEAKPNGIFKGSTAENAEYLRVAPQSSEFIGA

Q: What does the source list for C#Cc1cccc(Nc2ccnc3cc(OC)c(OC)cc23)c1?
A: Kd [1]: 0.0076 µM; inhibition [2]: 71.3%; IC50 (cells [3]): 13 µM; IC50 [4]: 0.5 µM; Kd [5]: 0.00027 µM; Activity [6]: Active; IC50 [7]: 0.042 µM; IC50 (cells [8]): > 50 µM; IC50 (cells [9]): 14 µM; IC50 (cells [10]): 30 µM; IC50 (cells [11]): 7.7 µM; inhibition [12]: 0%; inhibition [13]: 0%
